Assays:
[1] = Phase 3 oral omadacycline vs oral linezolid in ABSSSI: safety (adverse events, TEAEs, vital signs, ECG, laboratory); format: in vivo; details: safety population
Excerpt: An Adverse Event (AE) is any untoward, undesired, or unplanned event in the form of signs, symptoms, disease, or laboratory or physiologic observations occurring in a person given a test article or in a clinical study. […] An AE includes, but is not limited to, the following: any clinically significant worsening of a preexisting condition; an AE occurring from overdose of a test article, whether accidental or intentional; overdose is a dose greater than that specified in the protocol; an AE occurring from abuse (e.g., use for nonclinical reasons) of a test article; and an AE that has been associated with the discontinuation of the use of a test article.
The severity (or intensity) of an AE was classified using the following criteria:
Concerning relatedness, causality (i.e., whether there was a reasonable possibility that test article caused the event) for all AEs and SAEs was assessed.
Safety variables include the incidence rate of AEs, change in vital signs, ECG parameters and laboratory test results obtained during the course of the study. For safety analyses, subjects were analyzed according to the treatment actually received.
Summary tables were provided for all treatment-emergent adverse events (TEAEs). A TEAE is defined as an AE with a start date and time on or after the first dose of test article. […] Additional tabulations provide summaries by SOC and PT of subjects experiencing SAEs, severe TEAEs, TEAEs judged to be related to test article, TEAEs leading to discontinuation of test article, and TEAEs of special interest.
The following variables were analyzed descriptively: Vital signs (systolic and diastolic BP, pulse rate, body temperature, respiratory rate), including change from Screening by visit; Clinically notable vital signs (meeting predefined criteria as specified in the SAP) by visit. Subjects with notable vital signs data were listed.
ECG data (RR interval, PR interval, QRS interval, QTc, QTc Bazett's Correction Formula [QTcB], and QTc Fridericia's Correction Formula [QTcF]) was summarized descriptively at each scheduled evaluation, and for the overall worst post-Screening value. Changes from Screening at each visit that a 12-lead ECG was obtained was also provided. An outlier analysis was conducted based on the worst post-Screening value.
The following variables were analyzed descriptively: Laboratory variables by visit; Change from Screening of laboratory variables by visit; and Clinically notable laboratory values (meeting predefined criteria specified in the SAP) by visit.

[2] = system: ABSSSI known or suspected to be due to Gram-positive pathogens; test: Phase 3 oral omadacycline vs oral linezolid in ABSSSI: Early Clinical Response 48-72 hours after first dose; format: in vivo, human; details: for Early Clinical Success, %: micro-mITT, % of N1
[3] = human, in vivo
ABSSSI = test: Earlier Phase 3 i.v.-to-oral omadacycline vs linezolid study in ABSSSI: clinical success; format: in vivo, human; details: i.v. with switch to oral
[4] = 48-72 hours after first dose, mITT population
[5] = Cellulitis/erysipelas, actual type, 48-72 hours, mITT
[6] = Cellulitis/erysipelas, as randomized, 48-72 hours, mITT
[7] = Major Abscess, actual type, 48-72 hours, mITT
[8] = Major Abscess, as randomized, 48-72 hours, mITT
[9] = Wound Infection, actual type, 48-72 hours, mITT
[10] = Wound Infection, as randomized, 48-72 hours, mITT

SMILES: CC(=O)NCC1CN(c2ccc(N3CCOCC3)c(F)c2)C(=O)O1 (stereo not drawn) [Linezolid, N-[[3-(3-fluoro-4-morpholinophenyl)-2-oxooxazolidin-5-yl]methyl]acetamide, reference compound]
- Subjects who died [1]: 1 (0.3) n (%)
- Subjects with at Least One Adverse Events (AE) [1]: 140 (38.1) n (%)
- Subjects with at Least One Drug-Related Serious TEAE [1]: 1 (0.3) n (%)
- Subjects with at Least One Drug-Related TEAE [1]: 52 (14.2) n (%)
- Subjects with at Least One Serious TEAE [1]: 5 (1.4) n (%)
- Subjects with at Least One Serious TEAE leading to Death [1]: 1 (0.3) n (%)
- Subjects with at Least One Serious TEAEs leading to premature discontinuation of test article [1]: 2 (0.5) n (%)
- Subjects with at Least One Severe TEAE [1]: 7 (1.9) n (%)
- Subjects with at Least One TEAE Leading to Study Drug Discontinuation [1]: 3 (0.8) n (%)
- Subjects with at Least One TEAE leading to dose interruption [1]: 0 n (%)
- Subjects with at Least One TEAE leading to premature discontinuation of study [1]: 1 (0.3) n (%)
- Subjects with at Least One TEAE leading to premature discontinuation of test article [1]: 3 (0.8) n (%)
- TEAE leading to study drug discontinuation: Cellulitis [1]: 0 n (%)
- TEAE leading to study drug discontinuation: Gastrointestinal Disorders (SOC) [1]: 0 n (%)
- TEAE leading to study drug discontinuation: Haematemesis [1]: 0 n (%)
- TEAE leading to study drug discontinuation: Infections And Infestations (SOC) [1]: 1 (0.3) n (%)
- TEAE leading to study drug discontinuation: Nausea [1]: 0 n (%)
- TEAE leading to study drug discontinuation: Pregnancy [1]: 0 n (%)
- TEAE leading to study drug discontinuation: Pregnancy, Puerperium And Perinatal Conditions (SOC) [1]: 0 n (%)
- TEAE leading to study drug discontinuation: Staphylococcal Bacteraemia [1]: 0 n (%)
- TEAE leading to study drug discontinuation: Subcutaneous Abscess [1]: 0 n (%)
- TEAE leading to study drug discontinuation: Vomiting [1]: 0 n (%)
- TEAE leading to study drug discontinuation: Wound Infection [1]: 1 (0.3) n (%)
- TEAE: Alanine Aminotransferase Increased [1]: 11 (3.0) n (%)
- TEAE: Aspartate Aminotransferase Increased [1]: 12 (3.3) n (%)
- TEAE: Cellulitis [1]: 9 (2.5) n (%)
- TEAE: Headache [1]: 8 (2.2) n (%)
- TEAE: Wound Infection [1]: 17 (4.6) n (%)
- Total Number of AEs [1]: 250
- Total Number of TEAEs [1]: 239
- Subjects with at Least One TEAE ([1]; AE overview): 137 (37.3) n (%)
- TEAE: Abdominal Pain Upper ([1]; all severities): 4 (1.1) n (%)
- TEAE: Diarrhea ([1]; all severities): 10 (2.7) n (%)
- TEAE: Nausea ([1]; all severities): 28 (7.6) n (%)
- TEAE: Vomiting ([1]; all severities): 11 (3.0) n (%)
- Subjects with at Least One TEAE, Mild ([1]; highest severity Mild): 85 (23.2) n (%)
- TEAE: Abdominal Pain Upper, Mild ([1]; highest severity Mild): 4 (1.1) n (%)
- TEAE: Abdominal Pain, Mild ([1]; highest severity Mild): 1 (0.3) n (%)
- TEAE: Diarrhea, Mild ([1]; highest severity Mild): 9 (2.5) n (%)
- TEAE: Gastrointestinal Disorders (SOC), Mild ([1]; highest severity Mild): 44 (12.0) n (%)
- TEAE: Nausea, Mild ([1]; highest severity Mild): 24 (6.5) n (%)
- TEAE: Vomiting, Mild ([1]; highest severity Mild): 10 (2.7) n (%)
- Subjects with at Least One TEAE, Moderate ([1]; highest severity Moderate): 45 (12.3) n (%)
- TEAE: Abdominal Pain Upper, Moderate ([1]; highest severity Moderate): 0 n (%)
- TEAE: Abdominal Pain, Moderate ([1]; highest severity Moderate): 1 (0.3) n (%)
- TEAE: Diarrhea, Moderate ([1]; highest severity Moderate): 1 (0.3) n (%)
- TEAE: Gastrointestinal Disorders (SOC), Moderate ([1]; highest severity Moderate): 8 (2.2) n (%)
- TEAE: Nausea, Moderate ([1]; highest severity Moderate): 4 (1.1) n (%)
- TEAE: Vomiting, Moderate ([1]; highest severity Moderate): 1 (0.3) n (%)
- Subjects with at Least One TEAE, Severe ([1]; highest severity Severe): 7 (1.9) n (%)
- TEAE: Abdominal Pain Upper, Severe ([1]; highest severity Severe): 0 n (%)
- TEAE: Abdominal Pain, Severe ([1]; highest severity Severe): 0 n (%)
- TEAE: Diarrhea, Severe ([1]; highest severity Severe): 0 n (%)
- TEAE: Gastrointestinal Disorders (SOC), Severe ([1]; highest severity Severe): 0 n (%)
- TEAE: Nausea, Severe ([1]; highest severity Severe): 0 n (%)
- TEAE: Vomiting, Severe ([1]; highest severity Severe): 0 n (%)
- Subjects with at Least One TEAE ([1]; most frequent (≥2%) TEAEs table): 137 (37.3) n (%)
- Early Clinical Response: Clinical Failure [2, 4]: 32 (8.9) n (%)
- Early Clinical Response: Clinical Failure or Indeterminate [2, 4]: 63 (17.5) n (%)
- Early Clinical Response: Indeterminate [2, 4]: 31 (8.6) n (%)
- Early Clinical Response: Clinical Success ([2]; 48-72 hours after first dose, mITT population (N = 360 per arm)): 297 (82.5) n (%)
- Early Clinical Response: Clinical Success ([2]; Cellulitis/erysipelas, actual type of infection, 48-72 hours, mITT): 65 (77.4) n (%)
- Early Clinical Response: Clinical Failure [2, 5]: 12 (14.3) n (%)
- Early Clinical Response: Clinical Failure or Indeterminate [2, 5]: 19 (22.6) n (%)
- Early Clinical Response: Indeterminate [2, 5]: 7 (8.3) n (%)
- Early Clinical Response: Clinical Failure [2, 6]: 12 (14.3) n (%)
- Early Clinical Response: Clinical Failure or Indeterminate [2, 6]: 19 (22.6) n (%)
- Early Clinical Response: Indeterminate [2, 6]: 7 (8.3) n (%)
- Early Clinical Response: Clinical Success ([2]; Cellulitis/erysipelas, type of infection as randomized, 48-72 hours, mITT): 65 (77.4) n (%)
- Early Clinical Response: Clinical Success ([2]; Major Abscess, actual type of infection, 48-72 hours, mITT): 55 (88.7) n (%)
- Early Clinical Response: Clinical Failure [2, 7]: 4 (6.5) n (%)
- Early Clinical Response: Clinical Failure or Indeterminate [2, 7]: 7 (11.3) n (%)
- Early Clinical Response: Indeterminate [2, 7]: 3 (4.8) n (%)
- Early Clinical Response: Clinical Failure [2, 8]: 4 (6.5) n (%)
- Early Clinical Response: Clinical Failure or Indeterminate [2, 8]: 7 (11.3) n (%)
- Early Clinical Response: Indeterminate [2, 8]: 3 (4.8) n (%)
- Early Clinical Response: Clinical Success ([2]; Major Abscess, type of infection as randomized, 48-72 hours, mITT): 55 (88.7) n (%)
- Early Clinical Response: Clinical Success ([2]; Wound Infection, actual type of infection, 48-72 hours, mITT): 177 (82.7) n (%)
- Early Clinical Response: Clinical Failure [2, 9]: 16 (7.5) n (%)
- Early Clinical Response: Clinical Failure or Indeterminate [2, 9]: 37 (17.3) n (%)
- Early Clinical Response: Indeterminate [2, 9]: 21 (9.8) n (%)
- Early Clinical Response: Clinical Failure [2, 10]: 16 (7.5) n (%)
- Early Clinical Response: Clinical Failure or Indeterminate [2, 10]: 37 (17.3) n (%)
- Early Clinical Response: Indeterminate [2, 10]: 21 (9.8) n (%)
- Early Clinical Response: Clinical Success ([2]; Wound Infection, type of infection as randomized, 48-72 hours, mITT): 177 (82.7) n (%)
- Early Clinical Success, % ([2]; baseline pathogen Clostridium perfringens, 48-72 hours after first dose): (100.0) %
- Early Clinical Success, % ([2]; baseline pathogen Enterobacter cloacae, 48-72 hours after first dose): (83.3) %
- Early Clinical Success, % ([2]; baseline pathogen Enterococcus faecalis VRE, 48-72 hours after first dose): (100.0) %
- Early Clinical Success, % ([2]; baseline pathogen Enterococcus faecalis VSE, 48-72 hours after first dose): (60.0) %
- Early Clinical Success, % ([2]; baseline pathogen Enterococcus faecalis, 48-72 hours after first dose): (66.7) %
- Early Clinical Success, % ([2]; baseline pathogen Enterococcus faecium VSE, 48-72 hours after first dose): (100.0) %
- Early Clinical Success, % ([2]; baseline pathogen Enterococcus faecium, 48-72 hours after first dose): (100.0) %
- Early Clinical Success, % ([2]; baseline pathogen Escherichia coli, 48-72 hours after first dose): (100.0) %
- Early Clinical Success, % ([2]; baseline pathogen Finegoldia magna, 48-72 hours after first dose): (0.0) %
- Early Clinical Success, % ([2]; baseline pathogen Klebsiella pneumoniae, 48-72 hours after first dose): (83.3) %
- Early Clinical Success, % ([2]; baseline pathogen MRSA, 48-72 hours after first dose): (88.8) %
- Early Clinical Success, % ([2]; baseline pathogen MSSA, 48-72 hours after first dose): (79.2) %
- Early Clinical Success, % ([2]; baseline pathogen Prevotella denticola, 48-72 hours after first dose): (100.0) %
- Early Clinical Success, % ([2]; baseline pathogen Prevotella melaninogenica, 48-72 hours after first dose): (100.0) %
- Early Clinical Success, % ([2]; baseline pathogen Staphylococcus aureus, 48-72 hours after first dose): (83.3) %
- Early Clinical Success, % ([2]; baseline pathogen Streptococcus agalactiae, 48-72 hours after first dose): (50.0) %
- Early Clinical Success, % ([2]; baseline pathogen Streptococcus anginosus group, 48-72 hours after first dose): (80.0) %
- Early Clinical Success, % ([2]; baseline pathogen Streptococcus anginosus, 48-72 hours after first dose): (85.0) %
- Early Clinical Success, % ([2]; baseline pathogen Streptococcus constellatus, 48-72 hours after first dose): (100.0) %
- Early Clinical Success, % ([2]; baseline pathogen Streptococcus intermedius, 48-72 hours after first dose): (75.0) %
- Early Clinical Success, % ([2]; baseline pathogen Streptococcus pyogenes, 48-72 hours after first dose): (81.3) %
- discontinuation due to TEAE, % of subjects [3]: 2.2%
- serious TEAEs, % of subjects [3]: 2.5%
- treatment-emergent adverse events (TEAEs), % of subjects [3]: 45.7%
- clinical success based on investigator's assessment of clinical response (ABSSSI; 7-14 days after the last dose): 83.6%
- clinical success based on a reduction of lesion size (ABSSSI; 48-72 hours after the first dose, FDA primary analysis population (N=627)): 85.5%

From US10111890B2, “9-aminomethyl minocycline compounds and uses thereof” (Paratek Pharmaceuticals, Inc., priority 2016, dated 2018)
